Here are results for eleven molecules from patent US20240368203A1, “DEGRADATION OF (EGFR) BY CONJUGATION OF EGFR INHIBITORS WITH E3 LIGASE LIGAND AND METHODS OF USE” (BeiGene, Ltd., priority 2022, published 2024).

One assay addresses T1, EGFR-L858R/T790M/C797S (Homo sapiens, UniProt P00533, C797S/L858R/T790M).
T1 construct: expressed in transfected cells; host or cells: H1975-clone #25 (lentiviral over-expression, endogenous EGFR knocked out)
The assay can be described thus: EGFR degradation HTRF assay in H1975-clone #25 cells. The settings on record: 16 h treatment; for DC50: H1975-clone #25 (L858R/T790M/C797S) cells, IC50 (DC50), read-out: DC50(nM) H1975 # 25-LTC; for Dmax: NCI-H1975, H1975-clone #25 (L858R/T790M/C797S) cells, maximum percentage of inhibition (degradation), read-out: Dmax (%) H1975 # 25-LTC. The class given is cell-based. The protocol: (§1) H1975-clone #28(Del19/T790M/C797S) and H1975-clone #25(L858R/T790M/C797S). EGFR-Del19/T790M/C797S and EGFR-L858R/T790M/C797S were stably expressed in H1975 cell lines by lentivirus-mediated over-expression, respectively. The EGFR over-expressed cells then underwent knockout, in which the EGFR targeting sgRNA was designed to only target the endogenous EGFR copies and preserve the exogenous EGFR copies. Followed by knockout, the edited H1975 cells were seeded in 96 well plates at the concentration of […], cultured for about 2 weeks to allow single clones formation. The formed clones were screened by DNA sequencing and whole exon sequencing analysis for the desired edition.
(§2) H1975-clone #28, and H1975-clone #25 were finally confirmed as homozygous Del19/T790M/C797S EGFR, and L858R/T790M/C797S EGFR clones, respectively.
(§3) H1975-#25 and H1975-#28 cells are treated with compounds diluted in 0.2% DMSO cell culture medium on day 2, incubate for 16 h, 37° C., 5% CO2. the final concentration of compounds in all assay is start with 10 uM, 5-fold dilution, total 8 doses were included.
(§4) After 16 h treatment, add HTRF lysis buffer to each well; seal the plate and incubate 1 hour at room temperature on a plate shaker; Once the cells are lysed, 16 μL of cell lysate are transferred to a PE 384-well HTRF detection plate; 4 μL of pre-mixed HTRF antibodies are added to each well; Cover the plate with a plate sealer, spin 1000 rpm for 1 min, Incubate overnight at room temperature; Read on BMG PheraStar with HTRF protocol (337 nm-665 nm-620 nm).
(§5) The inhibition (degradation) percentage of the compound was calculated by the following equation:
(§6) Inhibition percentage of Compound=100−100×(Signal−low control)/(High control−low control),
(§7) The IC50 (DC50) value of a compound can be obtained by fitting the following equation
(§8) Wherein, X and Y are known values, and IC50, Hillslope, Top and Bottom are the parameters obtained by fitting with software. Y is the inhibition percentage (calculated from the equation), X is the concentration of the compound; IC50 is the concentration of the compound when the 50% inhibition is reached. The smaller the IC50 value is, the stronger the inhibitory ability of the compound is. Vice versa, the higher the IC50 value is, the weaker the ability the inhibitory ability of the compound is; Hillslope represents the slope of the fitted curve, generally around 1 *; Bottom represents the minimum value of the curve obtained by data fitting, which is generally 0%±20%; Top represents the maximum value of the curve obtained by data fitting, which is generally 100%±20%. The experimental data were fitted by calculating and analyzing with Dotmatics data analysis software.
In general terms: TR-FRET usually uses a lanthanide donor and a delayed reading to cut background.

Another assay deals with EGFR-Del19/T790M/C797S. The assay can be described thus: EGFR degradation HTRF assay in H1975-clone #28 cells. Type of assay: cell-based. As to conditions: H1975-clone #28 (Del19/T790M/C797S) cells, 16 h treatment; for DC50: IC50 (DC50), read-out: DC50(nM) H1975 # 28 DTC; for Dmax (%) H1975 # 28 DTC: maximum percentage of inhibition (degradation). The protocol:
as §1, §2, §3, §4, §5, §6, §7, §8

In general, DC50 refers to the concentration giving 50% degradation. The Dmax is the largest share of the target that was removed.

T1 sequence (P00533 25-1210 T790M/C797S/L858R): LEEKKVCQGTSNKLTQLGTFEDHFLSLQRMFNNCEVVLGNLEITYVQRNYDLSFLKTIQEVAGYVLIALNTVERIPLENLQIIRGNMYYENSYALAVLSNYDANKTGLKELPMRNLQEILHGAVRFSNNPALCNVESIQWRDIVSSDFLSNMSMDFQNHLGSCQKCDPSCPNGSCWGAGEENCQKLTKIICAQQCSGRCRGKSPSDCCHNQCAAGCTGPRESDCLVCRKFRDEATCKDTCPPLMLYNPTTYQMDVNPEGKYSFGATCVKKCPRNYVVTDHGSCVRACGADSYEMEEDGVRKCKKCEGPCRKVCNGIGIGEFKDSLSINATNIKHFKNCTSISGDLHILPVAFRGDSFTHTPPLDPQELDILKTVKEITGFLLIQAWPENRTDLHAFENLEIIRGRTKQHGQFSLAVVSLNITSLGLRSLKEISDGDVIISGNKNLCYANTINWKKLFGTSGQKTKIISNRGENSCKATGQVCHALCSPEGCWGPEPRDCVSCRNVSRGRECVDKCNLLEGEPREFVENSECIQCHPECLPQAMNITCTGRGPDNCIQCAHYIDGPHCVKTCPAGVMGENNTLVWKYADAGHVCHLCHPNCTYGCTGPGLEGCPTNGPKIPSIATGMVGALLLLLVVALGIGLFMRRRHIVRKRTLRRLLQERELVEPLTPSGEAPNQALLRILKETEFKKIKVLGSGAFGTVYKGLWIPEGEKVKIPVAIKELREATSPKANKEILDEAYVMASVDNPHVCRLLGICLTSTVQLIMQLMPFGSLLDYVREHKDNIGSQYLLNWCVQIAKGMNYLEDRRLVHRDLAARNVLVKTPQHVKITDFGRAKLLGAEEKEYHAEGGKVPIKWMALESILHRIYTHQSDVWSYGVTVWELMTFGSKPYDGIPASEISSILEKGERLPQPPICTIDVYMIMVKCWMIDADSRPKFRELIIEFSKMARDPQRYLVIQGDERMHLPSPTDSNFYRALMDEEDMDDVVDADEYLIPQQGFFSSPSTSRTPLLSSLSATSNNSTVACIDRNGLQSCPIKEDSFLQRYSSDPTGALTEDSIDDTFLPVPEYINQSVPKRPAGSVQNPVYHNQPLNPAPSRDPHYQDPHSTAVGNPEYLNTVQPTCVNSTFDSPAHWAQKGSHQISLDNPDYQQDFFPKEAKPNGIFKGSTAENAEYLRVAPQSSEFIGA

Regarding `CCc1ncc2c(P(C)(C)=O)c(Nc3nc(Nc4cc(CC)c(N5CCC(N6CCC7(CCN(c8cc(F)c([C@H]9CCC(=O)NC9=O)c(F)c8)CC7)CC6)CC5)cc4OC)ncc3Br)ccc2n1` (single isomer, unassigned) [Example 4], at EGFR-L858R/T790M/C797S, the DC50 was found to be 2.5 nM and the maximal degradation (Dmax) was found to be 84%. In the assay on EGFR-Del19/T790M/C797S, the half-maximal degradation concentration (DC50) amounted to 1.5 nM and the “Dmax (%) H1975 # 28 DTC” value worked out at 87%.

Regarding `CCc1cc(Nc2ncc(Br)c(Nc3ccc4nc(C)c(F)cc4c3P(C)(C)=O)n2)c(OC)cc1N1CCC2(CCN(C(=O)CN3CCC(c4ccc(NC5CCC(=O)NC5=O)cc4)CC3)CC2)CC1` (single isomer, unassigned) [Example 29, 3-((4-(1-(2-(9-(4-((5-bromo-4-((5-(dimethylphosphoryl)-3-fluoro-2-methylquinolin-6-yl)amino)pyrimidin-2-yl)amino)-2-ethyl-5-methoxyphenyl)-3,9-diazaspiro[5.5]undecan-3-yl)-2-oxoethyl)piperidin-4-yl)phenyl)amino)piperidine-2,6-dione], on EGFR-L858R/T790M/C797S, the DC50 was determined as 3.8 nM and the Dmax is 96%. Also, in the assay with EGFR-Del19/T790M/C797S, the half-maximal degradation concentration (DC50) came to 3.1 nM and the “Dmax (%) H1975 # 28 DTC” value amounted to 88%.

Take `CCc1cc(Nc2ncc(Br)c(Nc3ccc4nc(C)c(F)cc4c3P(C)(C)=O)n2)c(OC)cc1N1CCC2(CCN(CC3CCN(c4ccc5c(c4)CN(C4CCC(=O)NC4=O)C5=O)CC3)CC2)CC1` (centres unmarked) [Example 48, 3-(5-(4-((9-(4-((5-bromo-4-((5-(dimethylphosphoryl)-3-fluoro-2-methylquinolin-6-yl)amino)pyrimidin-2-yl)amino)-2-ethyl-5-methoxyphenyl)-3,9-diazaspiro[5.5]undecan-3-yl)methyl)piperidin-1-yl)-1-oxoisoindolin-2-yl)piperidine-2,6-dione]: on EGFR-L858R/T790M/C797S, the 50% degradation concentration (DC50) stood at 2.8 nM and the maximal degradation (Dmax) was 90%. Moreover, in the assay on EGFR-Del19/T790M/C797S, the 50% degradation concentration (DC50) is 1.7 nM and the “Dmax (%) H1975 # 28 DTC” value was 83%.

As to `CCOc1cc(N2CCC(N3CCC4(CC3)CN(c3cc(F)c([C@H]5CCC(=O)NC5=O)c(F)c3)C4)CC2)c(CC)cc1Nc1ncc(Cl)c(Nc2ccc3nc(C)c(F)cc3c2P(C)(C)=O)n1` [Example 57, (R)-3-(4-(7-(1-(4-((5-chloro-4-((5-(dimethylphosphoryl)-3-fluoro-2-methylquinolin-6-yl)amino)pyrimidin-2-yl)amino)-5-ethoxy-2-ethylphenyl)piperidin-4-yl)-2,7-diazaspiro[3.5]nonan-2-yl)-2,6-difluorophenyl)piperidine-2,6-dione], at EGFR-L858R/T790M/C797S, the half-maximal degradation concentration (DC50) was 2.7 nM and the Dmax was determined as 90%. Also, in the assay on EGFR-Del19/T790M/C797S, the half-maximal degradation concentration (DC50) was 4.5 nM and the “Dmax (%) H1975 # 28 DTC” value worked out at 88%.

On to `CCc1cc(Nc2ncc(Br)c(Nc3ccc4nc(C)c(F)cc4c3P(C)(C)=O)n2)c(OC)cc1N1CCC2(CCN(CCN(C)c3cc(F)c([C@H]4CCC(=O)NC4=O)c(F)c3)CC2)CC1` [Example 44, (R)-3-(4-((2-(9-(4-((5-bromo-4-((5-(dimethylphosphoryl)-3-fluoro-2-methylquinolin-6-yl)amino)pyrimidin-2-yl)amino)-2-ethyl-5-methoxyphenyl)-3,9-diazaspiro[5.5]undecan-3-yl)ethyl)(methyl)amino)-2,6-difluorophenyl)piperidine-2,6-dione], for which, at EGFR-L858R/T790M/C797S, the DC50 stood at 4.2 nM and the maximal degradation (Dmax) was found to be 92%. In addition, in the assay on EGFR-Del19/T790M/C797S, the DC50 turned out to be 3.5 nM and the “Dmax (%) H1975 # 28 DTC” value worked out at 90%.

Take `CCc1cc(Nc2ncc(Br)c(Nc3ccc4nc(C)c(F)cc4c3P(C)(C)=O)n2)c(OC)cc1N1CCC2(CC1)CN(C1CCN(c3cc(F)c([C@H]4CCC(=O)NC4=O)c(F)c3)CC1)C2` [Example 62, (R)-3-(4-(4-(7-(4-((5-bromo-4-((5-(dimethylphosphoryl)-3-fluoro-2-methylquinolin-6-yl)amino)pyrimidin-2-yl)amino)-2-ethyl-5-methoxyphenyl)-2,7-diazaspiro[3.5]nonan-2-yl)piperidin-1-yl)-2,6-difluorophenyl)piperidine-2,6-dione]: on EGFR-L858R/T790M/C797S, the DC50 stood at 1.6 nM and the Dmax was 95%. Also, in the assay with EGFR-Del19/T790M/C797S, the DC50 worked out at 1.4 nM and the “Dmax (%) H1975 # 28 DTC” value is 89%.

Regarding `CCc1ncc2c(P(C)(C)=O)c(Nc3nc(Nc4cc(CC)c(N5CCC(N6CC(CN7CCC(c8cc(F)c([C@H]9CCC(=O)NC9=O)c(F)c8)CC7)C6)CC5)cc4OC)ncc3Br)ccc2n1` [Example 55, (R)-3-(4-(1-((1-(1-(4-((5-bromo-4-((5-(dimethylphosphoryl)-2-ethylquinazolin-6-yl)amino)pyrimidin-2-yl)amino)-2-ethyl-5-methoxyphenyl)piperidin-4-yl)azetidin-3-yl)methyl)piperidin-4-yl)-2,6-difluorophenyl)piperidine-2,6-dione], at EGFR-L858R/T790M/C797S, the 50% degradation concentration (DC50) came to 2.4 nM and the maximal degradation (Dmax) was determined as 92%. In addition, in the assay on EGFR-Del19/T790M/C797S, the 50% degradation concentration (DC50) is 5.6 nM and the “Dmax (%) H1975 # 28 DTC” value is 91%.

Turning to `CCc1cc(Nc2ncc(Cl)c(Nc3ccc4nc(C)c(F)cc4c3P(C)(C)=O)n2)c(OC)cc1N1CC2(CN(CC3CN(c4cc(F)c([C@H]5CCC(=O)NC5=O)c(F)c4)C3)C2)C1` [Example 78], at EGFR-L858R/T790M/C797S, the half-maximal degradation concentration (DC50) stood at 5.4 nM and the Dmax came out at 74%. Also, in the assay on EGFR-Del19/T790M/C797S, the half-maximal degradation concentration (DC50) came out at 1.9 nM and the “Dmax (%) H1975 # 28 DTC” value was found to be 90%.

In the case of `CCc1cc(Nc2ncc(Br)c(Nc3ccc4nc(C)c(F)cc4c3P(C)(C)=O)n2)c(OC)cc1N1CCC2(CCN(CCN(C)c3cccc4c3CN(C3CCC(=O)NC3=O)C4=O)CC2)CC1` (centres unmarked) [Example 34, 3-(4-((2-(9-(4-((5-bromo-4-((5-(dimethylphosphoryl)-3-fluoro-2-methylquinolin-6-yl)amino)pyrimidin-2-yl)amino)-2-ethyl-5-methoxyphenyl)-3,9-diazaspiro[5.5]undecan-3-yl)ethyl)(methyl)amino)-1-oxoisoindolin-2-yl)piperidine-2,6-dione], at EGFR-L858R/T790M/C797S, the DC50 was 2.8 nM and the Dmax is 89%. Also, in the assay with EGFR-Del19/T790M/C797S, the DC50 was 2.5 nM and the “Dmax (%) H1975 # 28 DTC” value is reported as 80%.

As to `CCOc1cc(N2CCC(N3CC(N4CCC(c5cc(F)c([C@H]6CCC(=O)NC6=O)c(F)c5)CC4)C3)CC2)c(CC)cc1Nc1ncc(Cl)c(Nc2ccc3nc(C)c(F)cc3c2P(C)(C)=O)n1` [Example 15, (R)-3-(4-(1-(1-(1-(4-((5-chloro-4-((5-(dimethylphosphoryl)-3-fluoro-2-methylquinolin-6-yl)amino)pyrimidin-2-yl)amino)-5-ethoxy-2-ethylphenyl)piperidin-4-yl)azetidin-3-yl)piperidin-4-yl)-2,6-difluorophenyl)piperidine-2,6-dione], on EGFR-L858R/T790M/C797S, the DC50 stood at 3.3 nM and the maximal degradation (Dmax) stood at 94%. In the assay on EGFR-Del19/T790M/C797S, the 50% degradation concentration (DC50) came out at 2.7 nM and the “Dmax (%) H1975 # 28 DTC” value is reported as 95%.

For `CCc1cc(Nc2ncc(Br)c(Nc3ccc4nc(C)c(F)cc4c3P(C)(C)=O)n2)c(OC)cc1N1CCC2(CCN(CC3CN(c4cc(F)c([C@H]5CCC(=O)NC5=O)c(F)c4)C3)CC2)CC1` [Example 39, (R)-3-(4-(3-((9-(4-((5-bromo-4-((5-(dimethylphosphoryl)-3-fluoro-2-methylquinolin-6-yl)amino)pyrimidin-2-yl)amino)-2-ethyl-5-methoxyphenyl)-3,9-diazaspiro[5.5]undecan-3-yl)methyl)azetidin-1-yl)-2,6-difluorophenyl)piperidine-2,6-dione], at EGFR-L858R/T790M/C797S, the DC50 amounted to 5.6 nM and the Dmax is 93%. For the same molecule, in the assay with EGFR-Del19/T790M/C797S, the DC50 amounted to 2.6 nM and the “Dmax (%) H1975 # 28 DTC” value was determined as 92%.
